Source: patent publication US20160220569A1, “CDK4/6 Inhibitor Dosage Formulations For The Protection Of Hematopoietic Stem And Progenitor Cells During Chemotherapy” (G1 Therapeutics, Inc., priority 2015, published 2016)
Read-outs that look alike come from different tables or passages of the source.

Experiment: Compound 1 PK dosed Days 1-5 with topotecan
Type: in vivo, human
Details: human, plasma, intravenous
Description: Analysis of plasma concentration versus time data for calculation of standard pharmacokinetic (PK) parameters following intravenous infusion administration was conducted using Phoenix WinNonlin version 6.3 using a nominal infusion duration and scheduled blood sampling times.

CN1CCN(c2ccc(Nc3ncc4cc5n(c4n3)C3(CCCCC3)CNC5=O)nc2)CC1 [Compound 1, 2′-((5-(4-methylpiperazin-1-yl)pyridin-2-yl)amino)-7′,8′-dihydro-6′H-spiro[cyclohexane-1,9′-pyrazino[1′,2′:1,5]pyrrolo[2,3-d]pyrimidin]-6′-one]
half-life (200 mg/m^2 with Topotecan 1.25 mg/m^2 (Cohort 2), Day 1, Mean, read-out: t½ (converted)): 7.87 h | AUC(0-inf) (200 mg/m^2 with Topotecan 1.25 mg/m^2 (Cohort 2), Day 1, Median, read-out: AUCinf): 2430 ng·h/mL | half-life (200 mg/m^2 with Topotecan 1.25 mg/m^2 (Cohort 2), Day 1, Median, read-out: t½ (converted)): 8.67 h | AUC(0-inf) (200 mg/m^2 with Topotecan 1.25 mg/m^2 (Cohort 2), Day 1, individual subjects, read-out: AUCinf): 2320 ng·h/mL | Cmax (200 mg/m^2 with Topotecan 1.25 mg/m^2 (Cohort 2), Day 1, individual subjects, read-out: Cmax): 1000 ng/mL | half-life (200 mg/m^2 with Topotecan 1.25 mg/m^2 (Cohort 2), Day 1, individual subjects, read-out: t½ (converted)): 6.14 h | Cmax (200 mg/m^2 with Topotecan 1.25 mg/m^2 (Cohort 2), Day 4, Geometric Mean, read-out: Cmax): 739 ng/mL | half-life (200 mg/m^2 with Topotecan 1.25 mg/m^2 (Cohort 2), Day 4, Geometric Mean, read-out: t½ (converted)): 8.84 h | Cmax (200 mg/m^2 with Topotecan 1.25 mg/m^2 (Cohort 2), Day 4, Mean, read-out: Cmax): 752 ng/mL | half-life (200 mg/m^2 with Topotecan 1.25 mg/m^2 (Cohort 2), Day 4, Mean, read-out: t½ (converted)): 8.95 h | half-life (200 mg/m^2 with Topotecan 1.25 mg/m^2 (Cohort 2), Day 4, Median, read-out: t½ (converted)): 9.1 h | Cmax (200 mg/m^2 with Topotecan 1.25 mg/m^2 (Cohort 2), Day 4, individual subjects, read-out: Cmax): 904 ng/mL | half-life (200 mg/m^2 with Topotecan 1.25 mg/m^2 (Cohort 2), Day 4, individual subjects, read-out: t½ (converted)): 7.15 h | AUC(0-inf) (200 mg/m^2 with Topotecan […]^2 (Cohort 1), Day 1, Geo. Mean, read-out: AUCinf): 2120 ng·h/mL | Cmax (200 mg/m^2 with Topotecan […]^2 (Cohort 1), Day 1, Geo. Mean, read-out: Cmax): 932 ng/mL | half-life (200 mg/m^2 with Topotecan […]^2 (Cohort 1), Day 1, Geo. Mean, read-out: t½ (converted)): 5.91 h | AUC(0-inf) (200 mg/m^2 with Topotecan […]^2 (Cohort 1), Day 1, Mean, read-out: AUCinf): 2140 ng·h/mL | Cmax (200 mg/m^2 with Topotecan […]^2 (Cohort 1), Day 1, Mean, read-out: Cmax): 955 ng/mL | half-life (200 mg/m^2 with Topotecan […]^2 (Cohort 1), Day 1, Mean, read-out: t½ (converted)): 5.92 h | AUC(0-inf) (200 mg/m^2 with Topotecan […]^2 (Cohort 1), Day 1, Median, read-out: AUCinf): 2140 ng·h/mL | Cmax (200 mg/m^2 with Topotecan […]^2 (Cohort 1), Day 1, Median, read-out: Cmax): 955 ng/mL | half-life (200 mg/m^2 with Topotecan […]^2 (Cohort 1), Day 1, Median, read-out: t½ (converted)): 5.92 h | AUC(0-inf) (200 mg/m^2 with Topotecan […]^2 (Cohort 1), Day 1, individual subjects, read-out: AUCinf): 1840 ng·h/mL | half-life (200 mg/m^2 with Topotecan […]^2 (Cohort 1), Day 1, individual subjects, read-out: t½ (converted)): 5.6 h | Cmax (200 mg/m^2 with Topotecan […]^2 (Cohort 1), Day 4, Geometric Mean, read-out: Cmax): 993 ng/mL | half-life (200 mg/m^2 with Topotecan […]^2 (Cohort 1), Day 4, Geometric Mean, read-out: t½ (converted)): 7.98 h | Cmax (200 mg/m^2 with Topotecan […]^2 (Cohort 1), Day 4, Mean, read-out: Cmax): 999 ng/mL | half-life (200 mg/m^2 with Topotecan […]^2 (Cohort 1), Day 4, Mean, read-out: t½ (converted)): 8.06 h | Cmax (200 mg/m^2 with Topotecan […]^2 (Cohort 1), Day 4, Median, read-out: Cmax): 999 ng/mL | half-life (200 mg/m^2 with Topotecan […]^2 (Cohort 1), Day 4, Median, read-out: t½ (converted)): 8.06 h | half-life (200 mg/m^2 with Topotecan […]^2 (Cohort 1), Day 4, individual subjects, read-out: t½ (converted)): 6.96 h | AUC(0-inf) (Cohort 1 (Topotecan […]^2), Compound 1 200 mg/m^2, Day 1, mean, read-out: AUCinf averaged): 2140 ng·h/mL | Cmax (Cohort 1 (Topotecan […]^2), Compound 1 200 mg/m^2, Day 1, mean, read-out: Cmax averaged): 955 ng/mL | half-life (Cohort 1 (Topotecan […]^2), Compound 1 200 mg/m^2, Day 1, mean, read-out: Half-lives averaged (converted)): 5.92 h | half-life (Cohort 1 (Topotecan […]^2), Compound 1 200 mg/m^2, Day 4, mean, read-out: Half-lives averaged (converted)): 8.06 h | Cmax (Cohort 1 (Topotecan […]^2), Compound 1 200 mg/m^2, Day 4, mean, read-out: average Cmax): 999 ng/mL | AUC(0-inf) (Cohort 2 (Topotecan 1.25 mg/m^2), Compound 1 200 mg/m^2, Day 1, mean, read-out: AUCinf averaged): 2490 ng·h/mL | Cmax (Cohort 2 (Topotecan 1.25 mg/m^2), Compound 1 200 mg/m^2, Day 1, mean, read-out: Cmax averaged): 904 ng/mL | half-life (Cohort 2 (Topotecan 1.25 mg/m^2), Compound 1 200 mg/m^2, Day 1, mean, read-out: Half-lives averaged (converted)): 7.87 h | half-life (Cohort 2 (Topotecan 1.25 mg/m^2), Compound 1 200 mg/m^2, Day 4, mean, read-out: Half-lives averaged (converted)): 8.95 h | Cmax (Cohort 2 (Topotecan 1.25 mg/m^2), Compound 1 200 mg/m^2, Day 4, mean, read-out: average Cmax): 752 ng/mL | concentration at 24.5 h (Cohort 2 (Topotecan 1.25 mg/m^2), Day 1, mean, read-out: concentration at 24.5 hours after the start of infusion, averaging): 19.5 ng/mL | concentration at 24.5 h (Cohort 2 (Topotecan 1.25 mg/m^2), Day 4, mean, read-out: concentration at 24.5 hours after dosing, averaged): 22.7 ng/mL | AUC(0-inf) (Cohort 3 (Topotecan 0.75 mg/m^2), Compound 1 200 mg/m^2, Day 1, mean, read-out: AUCinf averaged): 2200 ng·h/mL | Cmax (Cohort 3 (Topotecan 0.75 mg/m^2), Compound 1 200 mg/m^2, Day 1, mean, read-out: Cmax averaged): 1140 ng/mL | half-life (Cohort 3 (Topotecan 0.75 mg/m^2), Compound 1 200 mg/m^2, Day 1, mean, read-out: Half-lives averaged (converted)): 7.4 h | half-life (Cohort 3 (Topotecan 0.75 mg/m^2), Compound 1 200 mg/m^2, Day 4, mean, read-out: Half-lives averaged (converted)): 8.81 h | Cmax (Cohort 3 (Topotecan 0.75 mg/m^2), Compound 1 200 mg/m^2, Day 4, mean, read-out: average Cmax): 1330 ng/mL | concentration at 24.5 h (Cohort 3 (Topotecan 0.75 mg/m^2), Day 1, mean, read-out: concentration at 24.5 hours after the start of infusion, averaging): 13.3 ng/mL | concentration at 24.5 h (Cohort 3 (Topotecan 0.75 mg/m^2), Day 4, mean, read-out: concentration at 24.5 hours after dosing, averaged): 18.2 ng/mL
